Test results: US20240101576A1, “HETEROCYCLIC INHIBITORS OF EGFR AND/OR HER2, FOR USE IN THE TREATMENT OF CANCER” (Scorpion Therapeutics, Inc., priority 2020, published 2024)

Assays:
Assay type in all cases: cell-based
[1] = target: T1, EGFR exon 20 ASV Ins V769_D770 (Ba/F3 cells) (Homo sapiens, UniProt P00533, INS769ASV); assay: Inhibitor activity on EGFR-dependent cell growth (CellTiter-Glo, 72 h), Ba/F3 EGFR exon 20 ASV Ins; settings: read-out: BaF3 ASV IC50
T1 construct: expressed in transfected cells; host or cells: Ba/F3 (murine pro-B cells), retroviral transduction, puromycin selection, IL3-independent pool
Description: (§1) Example A. Inhibitor Activity on EGFR-Dependent Cell Growth
(§2) Cell lines are generated by transducing Ba/F3 cells with retroviruses containing vectors with EGFR WT, EGFR L858R, EGFR exon 19del, EGFR L858R/C797S, EGFR exon 20 NPG Ins D770_N771, EGFR exon 20 ASV Ins V769_D770, EGFR exon 20 SVD Ins D770_N771, or EGFR exon 20 FQEA Ins A763_V764 genes and a puromycin selection marker. Transduced cells are selected with puromycin for 7 days and are then be transferred into culture media without Interleukin 3 (IL3). EGFR WT cells are maintained with supplemental EGF. Surviving cells are confirmed to express EGFR by Western blot and maintained as a pool. The IC50 date were included in Table 6 and Table 7.
(§3) 1.1 Cells are harvested from flask into cell culture medium and the cell number counted.
(§4) 1.2 Cells are diluted with culture medium to the desired density and 40 μL of cell suspension is added into each well of 384-well cell culture plate and the seeding density is 800 (FQEA, exon 19del), 600 (WT, NPG, L858R/C797S), or 400 (ASV, SVD, L858R) cells/well.
(§5) 2 Compound Preparation and Treatment
(§6) 2.1 Test compounds are dissolved to 10 mM in a DMSO stock solution. 45 μL of stock solution is transferred to a 384 polypropylene plate (pp-plate). Perform 3-fold, 10-point dilution via transferring 15 μL compound into 30 μL DMSO using a TECAN (EVO200) liquid handler.
(§7) 2.2 Spin plates at room temperature at 1,000 RPM for 1 minute.
(§8) 2.3 Transfer 120 nL of diluted compound from compound source plate into the cell plate.
(§9) 2.4 After compound treatment for 72 hours, perform CTG detection for compound treatment plates as described in “Detection” section.
(§10) 3.1 Plates are removed from incubators and equilibrated at room temperature for 15 minutes.
(§11) 3.2 Thaw the CellTiter Glo reagents and allow to equilibrate to room temperature before the experiment.
(§12) 3.3 Add 40 μL of CellTiter-Glo reagent into each well (at 1:1 to culture medium). Then place the plates at room temperature for 30 min followed by reading on EnVision.
(§13) 4.1 Inhibition activity is calculated following the formula below:
(§14) % Inhibition=100×(LumHC−LumSample)/(LumHC−LumLC) • where HC is obtained from cells treated with 0.1% DMSO only; and LC is obtained from culture medium only.
(§15) 4.2 2. Calculate the IC50 by fitting the Curve using Xlfit (v5.3.1.3), equation 201.
(§16) Y=Bottom+(Top−Bottom)/(1+10^((Log IC50−X)*HillSlope))

[2] = target: T2, EGFR WT (Ba/F3 cells) (Homo sapiens, UniProt P00533); assay: Inhibitor activity on EGFR-dependent cell growth (CellTiter-Glo, 72 h), Ba/F3 EGFR WT; settings: read-out: BaF3 WT IC50
T2 construct: expressed in transfected cells; host or cells: Ba/F3 (murine pro-B cells), retroviral transduction, puromycin selection, maintained with EGF
Description: as §1, §2, §3, §4, §5, §6, §7, §8, §9, §10, §11, §12, §13, §14, §15, §16

[3] = target: T3, EGFR exon 20 FQEA Ins A763_V764 (Ba/F3 cells) (Homo sapiens, UniProt P00533, INS763FQEA); assay: Inhibitor activity on EGFR-dependent cell growth (CellTiter-Glo, 72 h), Ba/F3 EGFR exon 20 FQEA Ins; settings: read-out: BaF3 FQEA IC50
T3 construct: expressed in transfected cells; host or cells: Ba/F3 (murine pro-B cells), retroviral transduction, puromycin selection, IL3-independent pool
Description: as §1, §2, §3, §4, §5, §6, §7, §8, §9, §10, §11, §12, §13, §14, §15, §16

[4] = target: T4, EGFR exon 20 SVD Ins D770_N771 (Ba/F3 cells) (Homo sapiens, UniProt P00533, INS770SVD); assay: Inhibitor activity on EGFR-dependent cell growth (CellTiter-Glo, 72 h), Ba/F3 EGFR exon 20 SVD Ins; settings: read-out: BaF3 SVD IC50
T4 construct: expressed in transfected cells; host or cells: Ba/F3 (murine pro-B cells), retroviral transduction, puromycin selection, IL3-independent pool
Description: as §1, §2, §3, §4, §5, §6, §7, §8, §9, §10, §11, §12, §13, §14, §15, §16

T3 sequence (P00533 with tags, fused parts or gaps INS763FQEA): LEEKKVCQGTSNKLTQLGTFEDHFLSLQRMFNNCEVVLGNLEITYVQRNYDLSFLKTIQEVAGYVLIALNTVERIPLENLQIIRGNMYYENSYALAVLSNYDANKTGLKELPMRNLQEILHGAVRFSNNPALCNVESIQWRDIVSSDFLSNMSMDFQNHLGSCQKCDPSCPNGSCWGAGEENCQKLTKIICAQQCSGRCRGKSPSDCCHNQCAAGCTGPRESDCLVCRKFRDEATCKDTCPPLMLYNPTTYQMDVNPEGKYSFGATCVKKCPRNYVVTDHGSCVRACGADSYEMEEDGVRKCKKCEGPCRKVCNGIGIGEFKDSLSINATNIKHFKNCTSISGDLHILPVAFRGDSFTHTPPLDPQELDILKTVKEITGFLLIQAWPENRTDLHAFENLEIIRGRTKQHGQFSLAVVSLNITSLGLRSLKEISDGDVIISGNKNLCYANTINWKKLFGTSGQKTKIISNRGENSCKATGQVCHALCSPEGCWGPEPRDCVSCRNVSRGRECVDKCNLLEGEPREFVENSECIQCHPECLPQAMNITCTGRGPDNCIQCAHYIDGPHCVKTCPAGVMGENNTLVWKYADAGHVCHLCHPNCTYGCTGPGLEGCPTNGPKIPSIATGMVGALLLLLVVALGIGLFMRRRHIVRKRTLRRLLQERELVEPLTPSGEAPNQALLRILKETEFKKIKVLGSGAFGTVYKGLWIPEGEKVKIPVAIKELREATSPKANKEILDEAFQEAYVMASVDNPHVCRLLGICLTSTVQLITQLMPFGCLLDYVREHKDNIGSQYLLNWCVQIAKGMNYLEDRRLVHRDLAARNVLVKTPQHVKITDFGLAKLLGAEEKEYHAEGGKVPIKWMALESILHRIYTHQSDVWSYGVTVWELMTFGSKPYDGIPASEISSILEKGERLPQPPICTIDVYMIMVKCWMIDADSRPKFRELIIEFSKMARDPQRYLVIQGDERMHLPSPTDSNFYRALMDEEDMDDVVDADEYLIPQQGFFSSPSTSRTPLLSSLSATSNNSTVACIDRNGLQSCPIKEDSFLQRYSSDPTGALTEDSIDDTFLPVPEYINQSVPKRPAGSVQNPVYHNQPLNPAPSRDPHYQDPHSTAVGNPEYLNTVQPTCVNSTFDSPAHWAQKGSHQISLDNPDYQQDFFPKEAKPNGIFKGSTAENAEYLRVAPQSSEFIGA
T2 sequence (P00533 25-1210): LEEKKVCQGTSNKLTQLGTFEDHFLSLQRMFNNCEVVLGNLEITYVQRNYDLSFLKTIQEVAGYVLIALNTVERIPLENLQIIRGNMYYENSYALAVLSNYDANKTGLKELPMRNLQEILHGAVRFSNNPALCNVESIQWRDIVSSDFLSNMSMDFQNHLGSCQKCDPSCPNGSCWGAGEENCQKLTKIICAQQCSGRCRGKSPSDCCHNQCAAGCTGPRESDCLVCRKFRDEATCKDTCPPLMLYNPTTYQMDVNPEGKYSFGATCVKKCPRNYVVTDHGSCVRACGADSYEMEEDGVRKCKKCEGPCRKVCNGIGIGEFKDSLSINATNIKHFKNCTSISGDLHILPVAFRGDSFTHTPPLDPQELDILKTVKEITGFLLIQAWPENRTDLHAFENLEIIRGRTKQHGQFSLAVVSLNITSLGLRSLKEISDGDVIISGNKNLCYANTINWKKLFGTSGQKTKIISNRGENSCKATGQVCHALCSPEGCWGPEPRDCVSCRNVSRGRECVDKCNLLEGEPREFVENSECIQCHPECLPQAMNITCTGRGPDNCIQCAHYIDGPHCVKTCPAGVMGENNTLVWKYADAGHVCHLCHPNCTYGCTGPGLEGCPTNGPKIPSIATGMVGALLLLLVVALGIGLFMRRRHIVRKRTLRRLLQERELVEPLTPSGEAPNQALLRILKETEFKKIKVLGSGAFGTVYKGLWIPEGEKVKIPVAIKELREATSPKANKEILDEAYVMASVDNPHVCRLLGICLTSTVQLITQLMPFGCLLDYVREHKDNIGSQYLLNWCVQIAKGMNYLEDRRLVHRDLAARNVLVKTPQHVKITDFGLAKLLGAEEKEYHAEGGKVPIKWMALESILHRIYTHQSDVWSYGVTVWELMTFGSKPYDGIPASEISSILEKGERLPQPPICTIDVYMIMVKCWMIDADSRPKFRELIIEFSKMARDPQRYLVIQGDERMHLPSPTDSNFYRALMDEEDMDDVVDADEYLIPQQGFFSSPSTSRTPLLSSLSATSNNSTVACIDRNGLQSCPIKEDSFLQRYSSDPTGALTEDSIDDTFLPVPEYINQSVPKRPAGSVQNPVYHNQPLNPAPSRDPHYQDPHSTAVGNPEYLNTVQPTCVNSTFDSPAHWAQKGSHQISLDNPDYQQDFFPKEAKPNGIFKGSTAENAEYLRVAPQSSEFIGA
T1 sequence (P00533 with tags, fused parts or gaps INS769ASV): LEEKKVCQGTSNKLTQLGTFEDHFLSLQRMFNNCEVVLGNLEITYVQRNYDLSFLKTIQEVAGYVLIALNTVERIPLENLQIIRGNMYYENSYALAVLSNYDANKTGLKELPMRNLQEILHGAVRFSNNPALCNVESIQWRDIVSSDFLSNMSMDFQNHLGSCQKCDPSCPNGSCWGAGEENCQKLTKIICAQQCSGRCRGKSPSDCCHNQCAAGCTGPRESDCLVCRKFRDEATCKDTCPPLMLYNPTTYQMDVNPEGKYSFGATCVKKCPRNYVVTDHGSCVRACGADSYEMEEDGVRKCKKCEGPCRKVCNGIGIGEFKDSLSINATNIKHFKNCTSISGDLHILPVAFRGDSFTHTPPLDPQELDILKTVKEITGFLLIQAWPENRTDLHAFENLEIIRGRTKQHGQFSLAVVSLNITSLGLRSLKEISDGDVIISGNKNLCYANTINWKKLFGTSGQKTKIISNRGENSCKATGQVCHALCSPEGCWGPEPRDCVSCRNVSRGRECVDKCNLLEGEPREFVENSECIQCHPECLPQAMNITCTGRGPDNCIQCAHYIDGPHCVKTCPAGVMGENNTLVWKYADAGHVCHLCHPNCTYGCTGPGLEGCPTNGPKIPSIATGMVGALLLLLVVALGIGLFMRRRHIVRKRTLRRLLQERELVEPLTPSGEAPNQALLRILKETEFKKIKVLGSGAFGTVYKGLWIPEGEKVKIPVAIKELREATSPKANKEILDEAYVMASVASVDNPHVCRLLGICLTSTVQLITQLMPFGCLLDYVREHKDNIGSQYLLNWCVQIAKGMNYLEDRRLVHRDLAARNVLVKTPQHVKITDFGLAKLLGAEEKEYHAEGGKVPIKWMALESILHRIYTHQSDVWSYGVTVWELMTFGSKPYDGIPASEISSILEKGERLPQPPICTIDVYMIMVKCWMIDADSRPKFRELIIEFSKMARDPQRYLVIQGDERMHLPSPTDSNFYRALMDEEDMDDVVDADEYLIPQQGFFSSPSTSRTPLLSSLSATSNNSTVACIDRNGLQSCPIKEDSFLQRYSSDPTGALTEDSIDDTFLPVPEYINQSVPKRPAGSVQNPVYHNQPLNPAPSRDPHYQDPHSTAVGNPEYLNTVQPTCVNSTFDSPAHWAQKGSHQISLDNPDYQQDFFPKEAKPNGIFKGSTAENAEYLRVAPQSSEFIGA
T4 sequence (P00533 with tags, fused parts or gaps INS770SVD): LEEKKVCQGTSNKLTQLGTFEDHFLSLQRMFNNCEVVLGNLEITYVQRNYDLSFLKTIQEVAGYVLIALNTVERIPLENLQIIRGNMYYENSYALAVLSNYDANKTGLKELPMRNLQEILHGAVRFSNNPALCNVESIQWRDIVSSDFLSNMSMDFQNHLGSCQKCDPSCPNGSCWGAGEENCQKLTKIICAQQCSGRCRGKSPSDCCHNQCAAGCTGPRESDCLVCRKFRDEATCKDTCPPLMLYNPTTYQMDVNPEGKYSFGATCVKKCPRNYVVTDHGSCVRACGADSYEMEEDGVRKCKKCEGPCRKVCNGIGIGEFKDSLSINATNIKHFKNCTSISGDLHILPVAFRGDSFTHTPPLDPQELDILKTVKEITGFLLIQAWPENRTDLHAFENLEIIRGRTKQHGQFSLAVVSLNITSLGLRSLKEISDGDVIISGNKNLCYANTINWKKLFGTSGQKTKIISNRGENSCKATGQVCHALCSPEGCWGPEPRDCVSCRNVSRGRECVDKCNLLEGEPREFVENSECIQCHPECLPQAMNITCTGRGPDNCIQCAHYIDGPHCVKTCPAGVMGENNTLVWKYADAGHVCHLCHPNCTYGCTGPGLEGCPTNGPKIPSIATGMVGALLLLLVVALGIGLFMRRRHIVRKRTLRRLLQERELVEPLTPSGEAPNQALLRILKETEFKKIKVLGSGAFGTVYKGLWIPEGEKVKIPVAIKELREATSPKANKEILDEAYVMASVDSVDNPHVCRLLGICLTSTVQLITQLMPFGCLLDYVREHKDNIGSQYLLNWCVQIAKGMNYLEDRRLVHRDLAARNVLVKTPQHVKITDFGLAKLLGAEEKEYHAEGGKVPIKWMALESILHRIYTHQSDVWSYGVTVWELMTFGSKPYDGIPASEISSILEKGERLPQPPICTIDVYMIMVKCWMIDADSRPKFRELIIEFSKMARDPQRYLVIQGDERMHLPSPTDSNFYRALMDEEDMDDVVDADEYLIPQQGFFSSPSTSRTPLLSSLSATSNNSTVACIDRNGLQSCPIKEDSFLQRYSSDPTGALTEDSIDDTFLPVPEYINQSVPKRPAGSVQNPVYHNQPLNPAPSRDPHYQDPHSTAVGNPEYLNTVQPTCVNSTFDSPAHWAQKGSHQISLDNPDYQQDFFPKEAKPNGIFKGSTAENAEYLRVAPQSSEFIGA

Structure (SMILES)	IC50 [1]	IC50 [2]	IC50 [3]	IC50 [4]
COCC[C@H]1CNC(=O)c2c1[nH]c(-c1ccncc1F)c2Nc1cccc(F)c1C [compound 824]	100 to 1000 nM	> 1000 nM	100 to 1000 nM	100 to 1000 nM
COc1c(Cl)cccc1Nc1c(-c2ccnc3ccc(OC4CC4)nc23)[nH]c2c1C(=O)NC[C@H]2C [Compound 769, (R)-3-((3-chloro-2-methoxyphenyl)amino)-2-(6-cyclopropoxy-1,5-naphthyridin-4-yl)-7-methyl-1,5,6,7-tetrahydro-4H-pyrrolo[3,2-c]pyridin-4-one]	< 100 nM	< 100 nM	< 100 nM	< 100 nM
COc1c(Cl)cccc1Nc1c(-c2ccnc(C(F)F)n2)[nH]c2c1C(=O)NCC2 [compound 472, 3-[(3-chloro-2-methoxyphenyl)amino]-2-[2-(difluoromethyl)pyrimidin-4-yl]-1H,5H,6H,7H-pyrrolo[3,2-c]pyridin-4-one]	100 to 1000 nM	> 1000 nM	> 1000 nM	100 to 1000 nM
COc1c(Cl)cccc1Nc1c(-c2ccncc2F)[nH]c2c1C(=O)NCC2CC1CCO1 (single isomer, unassigned) [Compound 783]	< 100 nM	> 1000 nM	100 to 1000 nM	
COc1c(Cl)cccc1Nc1c(-c2ccnc(Nc3cc(C)n(C)n3)n2)[nH]c2c1C(=O)NCC2 [compound 513, 3-[(3-chloro-2-methoxyphenyl)amino]-2-{2-[(1,5-dimethylpyrazl-3-yl)amino]pyrimidin-4-yl}-1H,5H,6H,7H-pyrrolo[3,2-c]pyridin-4-one]	< 100 nM	< 100 nM	< 100 nM	< 100 nM
COc1c(Cl)cccc1Nc1c(-c2ccncc2F)[nH]c2c1C(=O)NCC2CC1CCO1 (single isomer, unassigned) [Compound 786]	< 100 nM	100 to 1000 nM	100 to 1000 nM	
COc1c(Cl)cccc1Nc1c(-c2ccnc3cnc(C4CC4)nc23)[nH]c2c1C(=O)NCC2 [Compound 776, 3-[(3-chloro-2-methoxyphenyl)amino]-2-{2-cyclopropylpyrido[3,2-d]pyrimidin-8-yl}-1H,5H,6H,7H-pyrrolo[3,2-c]pyridin-4-one]	< 100 nM	100 to 1000 nM	< 100 nM	< 100 nM
COc1ncc2nccc(-c3[nH]c4c(c3Nc3cccc(Cl)c3OC)C(=O)N[C@H](C(F)(F)F)C4)c2n1 [Compound 508, (6S)-3-[(3-chloro-2-methoxyphenyl)amino]-2-{2-methoxypyrido[3,2-d]pyrimidin-8-yl}-6-(trifluoromethyl)-1H,5H,6H,7H-pyrrolo[3,2-c]pyridin-4-one]	> 1000 nM	> 1000 nM	100 to 1000 nM	100 to 1000 nM
COc1c(Cl)cccc1Nc1c(-c2ccnc3[nH]c(=O)c(OC)nc23)[nH]c2c1C(=O)NCC2 [compound 729, 8-(3-((3-chloro-2-methoxyphenyl)amino)-4-oxo-4,5,6,7-tetrahydro-1H-pyrrolo[3,2-c]pyridin-2-yl)-2-methoxypyrido[2,3-b]pyrazin-3 (4H)-one]	100 to 1000 nM	100 to 1000 nM	100 to 1000 nM	< 100 nM
COc1c(Cl)cccc1Nc1c(-c2ccncc2F)[nH]c2c1C(=O)NC[C@@]21CCN(C)C1 [compound 816]	100 to 1000 nM	> 1000 nM	100 to 1000 nM	100 to 1000 nM
COc1c(Cl)cccc1Nc1c(-c2ccncc2F)[nH]c2c1C(=O)NC[C@]21CCN(S(C)(=O)=O)C1 [compound 494]	> 1000 nM	> 1000 nM	> 1000 nM	> 1000 nM
COc1ncc2nccc(-c3[nH]c4c(c3Nc3cccc(Cl)c3C(F)(F)F)C(=O)NCC4)c2n1 [Compound 801, 3-{[3-chloro-2-(trifluoromethyl)phenyl]amino}-2-{2-methoxypyrido[3,2-d]pyrimidin-8-yl}-1H,5H,6H,7H-pyrrolo[3,2-c]pyridin-4-one]	100 to 1000 nM	> 1000 nM	> 1000 nM	> 1000 nM
COc1c(Cl)cccc1Nc1c(-c2ccncc2F)[nH]c2c1C(=O)NC[C@@H]2CCN1CCOCC1 [compound 485, (7S)-3-[(3-chloro-2-methoxyphenyl)amino]-2-(3-fluoropyridin-4-yl)-7-[2-(morpholin-4-yl)ethyl]-1H,5H,6H,7H-pyrrolo[3,2-c]pyridin-4-one]	> 1000 nM	> 1000 nM	> 1000 nM	> 1000 nM
COCC[C@H]1CNC(=O)c2c(Nc3cccc(Cl)c3OC)c(-c3ccncn3)n(C)c21 (single isomer, unassigned) [Compound 797]	> 1000 nM	> 1000 nM	> 1000 nM	> 1000 nM
COc1c(F)cccc1Nc1c(-c2ccnc3cc(F)cnc23)[nH]c2c1C(=O)NCC2 [Compound 825, 2-(7-fluoro-1,5-naphthyridin-4-yl)-3-[(3-fluoro-2-methoxyphenyl)amino]-1H,5H,6H,7H-pyrrolo[3,2-c]pyridin-4-one]	100 to 1000 nM	> 1000 nM	100 to 1000 nM	< 100 nM
COc1c(Cl)cccc1Nc1c(-c2ccncc2F)[nH]c2c1C(=O)NCC21COC1 [Compound 748, 3′-[(3-chloro-2-methoxyphenyl)amino]-2′-(3-fluoropyridin-4-yl)-5′,6′-dihydro-1′H-spiro[oxetane-3,7′-pyrrolo[3,2-c]pyridin]-4′-one]	100 to 1000 nM	> 1000 nM	100 to 1000 nM	100 to 1000 nM
COc1c(Cl)cccc1Nc1c(-c2ccnc3ccc(OC4CCC4)nc23)[nH]c2c1C(=O)NCC2 [compound 768, 3-[(3-chloro-2-methoxyphenyl)amino]-2-(6-cyclobutoxy-1,5-naphthyridin-4-yl)-1H,5H,6H,7H-pyrrolo[3,2-c] pyridin-4-one]	< 100 nM	100 to 1000 nM	< 100 nM	< 100 nM
COc1c(Cl)cccc1Nc1c(-c2ccnc(Nc3cnn(C(C)C)c3)n2)[nH]c2c1C(=O)NCC2 [compound 516, 3-[(3-chloro-2-methoxyphenyl)amino]-2-{2-[(1-isopropylpyrazol-4-yl)amino]pyrimidin-4-yl}-1H,5H,6H,7H-pyrrolo[3,2-c]pyridin-4-one]	< 100 nM	100 to 1000 nM	< 100 nM	< 100 nM
COc1c(Cl)cccc1Nc1c(-c2ccncc2F)[nH]c2c1C(=O)NCC2 [compound 410]		> 1000 nM	100 to 1000 nM	
COc1c(Cl)cccc1Nc1c(-c2ccncc2F)[nH]c2c1C(=O)NCC2CC1CCO1 (single isomer, unassigned) [Compound 784]	100 to 1000 nM	> 1000 nM	100 to 1000 nM	
COc1c(Cl)cccc1Nc1c(-c2ccncc2F)[nH]c2c1C(=O)NCC2CC1CCO1 (single isomer, unassigned) [Compound 785]	< 100 nM	100 to 1000 nM	< 100 nM	
COc1c(Cl)cccc1Nc1c(-c2ccncc2F)[nH]c2c1C(=O)NCC2C[C@H]1CO[C@H](CN(C)C)CO1 (single isomer, unassigned) [Compound 565, (7R*)-3-[(3-chloro-2-methoxyphenyl)amino]-7-{[(2S,5R)-5-[(dimethylamino)methyl]-1,4-dioxan-2-yl]methyl}-2-(3-fluoropyridin-4-yl)-1H,5H,6H,7H-pyrrolo[3,2-c]pyridin-4-one]	100 to 1000 nM	> 1000 nM		
COc1c(Cl)cccc1Nc1c(-c2ccncn2)[nH]c2c1C(=O)NCC2 [compound 675, 3-[(3-chloro-2-methoxyphenyl)amino]-2-(pyrimidin-4-yl)-1H,5H,6H,7H-pyrrolo[3,2-c]pyridin-4-one]		> 1000 nM	100 to 1000 nM	
